Measurements published in US9539260B2, “Dihydro-benzo-oxazine and dihydro-pyrido-oxazine derivatives” (Novartis AG, priority 2012, dated 2017).

Experiments:
PI3K alpha = PI3K alpha (Homo sapiens (Human), UniProt P42336); assay: Enzymatic PI3K alpha isoform inhibition (lipid kinase activity, Kinase-Glo luminescence); assay type: biochemical; conditions: Enzymatic assay
Summary of the method: (§1)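 ATP-depletion format: 10 nM PI3K with 5 μg/mL phosphatidylinositol and 2 μM ATP, run to ~50% ATP consumption, then Kinase-Glo added and remaining ATP read by luminescence after 5 min. IC50 from 4-parameter logistic fit, typically over 8 concentrations 10–0.003 μM.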

PI3K delta = PI3K delta (Homo sapiens (Human), UniProt O00329); assay: Enzymatic PI3K delta isoform inhibition (lipid kinase activity, Kinase-Glo luminescence); assay type: biochemical; conditions: Enzymatic assay
Chain of PI3K delta (O00329 other isoform, or with tags, fused parts or gaps linker GGGGGG): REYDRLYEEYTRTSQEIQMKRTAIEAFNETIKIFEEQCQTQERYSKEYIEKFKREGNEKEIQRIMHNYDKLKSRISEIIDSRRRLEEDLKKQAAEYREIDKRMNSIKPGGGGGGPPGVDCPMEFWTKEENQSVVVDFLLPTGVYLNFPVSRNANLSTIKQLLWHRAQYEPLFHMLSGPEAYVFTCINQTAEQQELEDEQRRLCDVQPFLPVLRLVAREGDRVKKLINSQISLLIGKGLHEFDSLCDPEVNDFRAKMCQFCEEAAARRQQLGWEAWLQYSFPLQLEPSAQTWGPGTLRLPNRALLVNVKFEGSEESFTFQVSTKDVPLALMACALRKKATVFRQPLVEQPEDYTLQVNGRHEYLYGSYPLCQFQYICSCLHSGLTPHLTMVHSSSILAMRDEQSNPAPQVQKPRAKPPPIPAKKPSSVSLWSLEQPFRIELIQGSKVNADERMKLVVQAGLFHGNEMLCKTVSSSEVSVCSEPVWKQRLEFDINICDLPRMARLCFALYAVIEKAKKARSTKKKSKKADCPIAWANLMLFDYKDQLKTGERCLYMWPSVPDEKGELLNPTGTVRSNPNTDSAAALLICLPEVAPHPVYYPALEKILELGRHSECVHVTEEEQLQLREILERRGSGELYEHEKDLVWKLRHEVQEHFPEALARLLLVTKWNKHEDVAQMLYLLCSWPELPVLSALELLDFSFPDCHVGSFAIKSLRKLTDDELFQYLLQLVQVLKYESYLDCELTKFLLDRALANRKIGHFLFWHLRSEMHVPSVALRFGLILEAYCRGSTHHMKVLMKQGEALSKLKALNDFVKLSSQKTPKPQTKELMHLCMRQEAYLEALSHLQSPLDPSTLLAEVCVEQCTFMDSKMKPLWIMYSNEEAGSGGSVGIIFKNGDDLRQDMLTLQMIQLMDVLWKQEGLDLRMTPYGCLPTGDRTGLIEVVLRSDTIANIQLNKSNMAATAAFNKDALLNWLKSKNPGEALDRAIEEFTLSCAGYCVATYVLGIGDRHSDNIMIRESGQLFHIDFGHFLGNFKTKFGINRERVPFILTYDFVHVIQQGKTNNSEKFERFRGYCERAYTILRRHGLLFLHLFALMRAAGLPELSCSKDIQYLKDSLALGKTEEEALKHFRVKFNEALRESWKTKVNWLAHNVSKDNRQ
Summary of the method: as §1

Chain of PI3K alpha (P42336 other isoform, or with tags, fused parts or gaps): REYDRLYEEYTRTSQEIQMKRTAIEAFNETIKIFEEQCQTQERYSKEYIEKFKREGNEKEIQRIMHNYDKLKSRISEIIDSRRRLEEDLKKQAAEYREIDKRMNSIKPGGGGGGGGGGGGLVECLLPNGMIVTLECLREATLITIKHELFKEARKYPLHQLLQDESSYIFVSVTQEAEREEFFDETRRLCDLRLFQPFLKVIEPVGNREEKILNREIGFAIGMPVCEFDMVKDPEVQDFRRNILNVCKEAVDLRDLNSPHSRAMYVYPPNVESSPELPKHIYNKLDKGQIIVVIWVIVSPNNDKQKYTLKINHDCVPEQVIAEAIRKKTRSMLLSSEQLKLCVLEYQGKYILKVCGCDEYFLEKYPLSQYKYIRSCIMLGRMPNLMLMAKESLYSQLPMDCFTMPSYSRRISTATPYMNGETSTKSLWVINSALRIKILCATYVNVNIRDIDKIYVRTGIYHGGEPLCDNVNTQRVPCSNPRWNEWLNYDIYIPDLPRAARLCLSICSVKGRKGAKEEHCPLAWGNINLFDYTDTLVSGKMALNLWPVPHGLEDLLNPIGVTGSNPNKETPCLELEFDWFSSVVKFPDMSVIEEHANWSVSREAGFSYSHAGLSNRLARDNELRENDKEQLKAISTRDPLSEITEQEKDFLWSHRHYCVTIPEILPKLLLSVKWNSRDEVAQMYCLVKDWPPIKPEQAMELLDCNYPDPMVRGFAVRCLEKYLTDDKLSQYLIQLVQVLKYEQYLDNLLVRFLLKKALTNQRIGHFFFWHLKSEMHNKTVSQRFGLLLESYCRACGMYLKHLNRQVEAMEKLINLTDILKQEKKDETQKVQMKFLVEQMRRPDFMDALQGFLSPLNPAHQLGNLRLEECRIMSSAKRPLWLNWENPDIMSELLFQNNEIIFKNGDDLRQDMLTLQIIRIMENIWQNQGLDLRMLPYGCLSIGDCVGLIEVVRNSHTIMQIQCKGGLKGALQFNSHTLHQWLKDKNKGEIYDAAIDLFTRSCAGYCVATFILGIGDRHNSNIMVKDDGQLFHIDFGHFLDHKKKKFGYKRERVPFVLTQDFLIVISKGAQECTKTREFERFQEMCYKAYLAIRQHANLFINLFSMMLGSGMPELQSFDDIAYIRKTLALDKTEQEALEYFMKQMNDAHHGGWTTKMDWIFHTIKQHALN

`COc1ncc(N2CCOc3ccc(O[C@H]4CCN(C(=O)c5cn(C)nc5C)C4)cc32)cc1C#N` [Example C18, 5-{6-[(S)-1-(1,3-Dimethyl-1H-pyrazole-4-carbonyl)-pyrrolidin-3-yloxy]-2,3-dihydro-benzo[1,4]oxazin-4-yl}-2-methoxy-nicotinonitrile] was tested, and the IC50 (PI3K alpha) was 425 nM and the IC50 (PI3K delta) was 12 nM.
For `Cc1cc(N2CCOc3ccc(O[C@H]4CCN(C(=O)c5cnco5)C4)cc32)cnc1S(C)(=O)=O` [Example B25, {(S)-3-[4-(6-Methanesulfonyl-5-methyl-pyridin-3-yl)-3,4-dihydro-2H-benzo[1,4]oxazin-6-yloxy]-pyrrolidin-1-yl}-oxazol-5-yl-methanone], the IC50 (PI3K alpha) was 665 nM and the IC50 (PI3K delta) was 40 nM.
Work on `CCC(=O)N1CC[C@H](Oc2ccc3c(c2)N(c2cnc(Cl)c(OC)c2)CCO3)C1` [Example B55, 1-{(S)-3-[4-(6-Chloro-5-methoxy-pyridin-3-yl)-3,4-dihydro-2H-benzo[1,4]oxazin-6-yloxy]-pyrrolidin-1-yl}-propan-1-one] yielded an IC50 (PI3K alpha) of 3850 nM and an IC50 (PI3K delta) of 65 nM.
`Cc1cc(N2CCOc3ccc(O[C@H]4CCN(C(=O)C5CCOCC5)C4)cc32)cnc1Cl` [Example B58, {(S)-3-[4-(6-Chloro-5-methyl-pyridin-3-yl)-3,4-dihydro-2H-benzo[1,4]oxazin-6-yloxy]-pyrrolidin-1-yl}-(tetrahydro-pyran-4-yl)-methanone] showed an IC50 (PI3K alpha) of 366 nM and an IC50 (PI3K delta) of 4 nM.
`COc1ncc(N2c3cc(O[C@H]4CCN(C(=O)C5CCOCC5)C4)ccc3OCC2C)cc1C#N` (stereo partly drawn) [Example C6, 2-Methoxy-5-{3-methyl-6-[(S)-1-(tetrahydro-pyran-4-carbonyl)-pyrrolidin-3-yloxy]-2,3-dihydro-benzo[1,4]oxazin-4-yl}-nicotinonitrile] showed an IC50 (PI3K alpha) of 4260 nM and an IC50 (PI3K delta) of 181 nM.
With `COc1ncc(N2CCOc3ccc(O[C@H]4CCN(C(=O)C5CCOC5)C4)cc32)cc1C#N` (single isomer, unassigned) [Example D29] the IC50 (PI3K alpha) was 534 nM and the IC50 (PI3K delta) was 3 nM.
`COc1ncc(N2CCOc3ccc(O[C@H]4CCN(C(=O)C5CCS(=O)(=O)CC5)C4)c(C)c32)cc1C` [V, (1,1-Dioxo-hexahydro-1lambda*6*-thiopyran-4-yl)-{(S)-3-[4-(6-methoxy-5-methyl-pyridin-3-yl)-5-methyl-3,4-dihydro-2H-benzo[1,4]oxazin-6-yloxy]-pyrrolidin-1-yl}-methanone] gave an IC50 (PI3K alpha) of 3200 nM and an IC50 (PI3K delta) of 79 nM.
`COc1ncc(N2CCOc3ccc(O[C@H]4CCN(C(=O)CC#N)C4)cc32)cc1F` [Example B116, 3-{(S)-3-[4-(5-Fluoro-6-methoxy-pyridin-3-yl)-3,4-dihydro-2H-benzo[1,4]oxazin-6-yloxy]-pyrrolidin-1-yl}-3-oxo-propionitrile] showed an IC50 (PI3K alpha) of 304 nM and an IC50 (PI3K delta) of 22 nM.
Work on `COCCC(=O)N1CC[C@H](Oc2ccc3c(c2)N(c2cnc(OC)c(OC)c2)CCO3)C1` [Example B46, 1-{(S)-3-[4-(5,6-Dimethoxy-pyridin-3-yl)-3,4-dihydro-2H-benzo[1,4]oxazin-6-yloxy]-pyrrolidin-1-yl}-3-methoxy-propan-1-one] yielded an IC50 (PI3K alpha) of 2080 nM and an IC50 (PI3K delta) of 226 nM.
`COc1ncc(N2CCOc3ccc(O[C@@H]4CCN(C(=O)C5CCOCC5)C4)cc32)cc1C#N` [Example C2, 2-Methoxy-5-{6-[(R)-1-(tetrahydro-pyran-4-carbonyl)-pyrrolidin-3-yloxy]-2,3-dihydro-benzo[1,4]oxazin-4-yl}-nicotinonitrile] gave an IC50 (PI3K alpha) of 1220 nM and an IC50 (PI3K delta) of 243 nM.
Work on `Cc1cc(N2CCOc3ccc(O[C@H]4CCN(C(=O)C5COCCO5)C4)cc32)cnc1S(C)(=O)=O` (single isomer, unassigned) [Example H3] yielded an IC50 (PI3K alpha) of 559 nM and an IC50 (PI3K delta) of 8 nM.
Molecule `Cc1cc(N2CCOc3ccc(O[C@H]4CCN(S(=O)(=O)C5CCOCC5)C4)cc32)cnc1S(C)(=O)=O` [Example B81, 4-(6-Methanesulfonyl-5-methyl-pyridin-3-yl)-6-[(S)-1-(tetrahydro-pyran-4-sulfonyl)-pyrrolidin-3-yloxy]-3,4-dihydro-2H-benzo[1,4]oxazine] has an IC50 (PI3K alpha) of 482 nM and an IC50 (PI3K delta) of 81 nM.
For `COc1ncc(N2CCOc3ccc(O[C@H]4CCN(C(=O)CS(C)(=O)=O)C4)cc32)cc1C#N` [Example C11, 5-{6-[(S)-1-(2-Methanesulfonyl-acetyl)-pyrrolidin-3-yloxy]-2,3-dihydro-benzo[1,4]oxazin-4-yl}-2-methoxy-nicotinonitrile], the IC50 (PI3K alpha) was 353 nM and the IC50 (PI3K delta) was 23 nM.
With `COc1ncc(N2CCOc3ccc(O[C@H]4CCN(C(=O)C5CCS(=O)(=O)C5)C4)cc32)cc1F` (single isomer, unassigned) [Example H11] the IC50 (PI3K alpha) was 299 nM and the IC50 (PI3K delta) was 8 nM.
`CS(=O)(=O)c1ncc(N2CCOc3ccc(O[C@H]4CCN(C(=O)C5CCOCC5)C4)cc32)cc1Cl` [Example B79, {(S)-3-[4-(5-Chloro-6-methanesulfonyl-pyridin-3-yl)-3,4-dihydro-2H-benzo[1,4]oxazin-6-yloxy]-pyrrolidin-1-yl}-(tetrahydro-pyran-4-yl)-methanone] was tested, and the IC50 (PI3K alpha) was 661 nM and the IC50 (PI3K delta) was 3 nM.
`COc1ncc(N2CCOc3ccc(O[C@H]4CCN(C(=O)c5cocn5)C4)cc32)cc1C#N` [Example D18, 2-Methoxy-5-{6-[(S)-1-(oxazole-4-carbonyl)-pyrrolidin-3-yloxy]-2,3-dihydro-benzo[1,4]oxazin-4-yl}-nicotinonitrile] was tested, and the IC50 (PI3K alpha) was 281 nM and the IC50 (PI3K delta) was 19 nM.
`CCC(=O)N1CC[C@H](Oc2ccc3c(c2)N(c2cncc(S(=O)(=O)N4CCN(C)CC4)c2)CCO3)C1` [Example A28, 1-((S)-3-{4-[5-(4-Methyl-piperazine-1-sulfonyl)-pyridin-3-yl]-3,4-dihydro-2H-benzo[1,4]oxazin-6-yloxy}-pyrrolidin-1-yl)-propan-1-one] gave an IC50 (PI3K alpha) of 531 nM and an IC50 (PI3K delta) of 16 nM.
`Cc1cc(N2CCOc3cnc(O[C@H]4CCN(C(=O)C5CCOCC5)C4)cc32)cnc1S(C)(=O)=O` [Example F6, {(S)-3-[1-(6-Methanesulfonyl-5-methyl-pyridin-3-yl)-2,3-dihydro-1H-pyrido[3,4-b][1,4]oxazin-7-yloxy]-pyrrolidin-1-yl}-(tetrahydro-pyran-4-yl)-methanone] was tested, and the IC50 (PI3K alpha) was 783 nM and the IC50 (PI3K delta) was 3 nM.
`COc1ncc(N2CCOc3ccc(O[C@H]4CCN(C(=O)C5=CC(=O)CC(C)(C)O5)C4)cc32)cc1C#N` [Example C21, 5-{6-[(S)-1-(6,6-Dimethyl-4-oxo-5,6-dihydro-4H-pyran-2-carbonyl)-pyrrolidin-3-yloxy]-2,3-dihydro-benzo[1,4]oxazin-4-yl}-2-methoxy-nicotinonitrile] gave an IC50 (PI3K alpha) of 698 nM and an IC50 (PI3K delta) of 28 nM.
Work on `COc1ncc(N2CCOc3ccc(O[C@H]4CCN(C(=O)C(C)(C)O)C4)cc32)cc1C#N` [Example D15, 5-{6-[(S)-1-(2-Hydroxy-2-methyl-propionyl)-pyrrolidin-3-yloxy]-2,3-dihydro-benzo[1,4]oxazin-4-yl}-2-methoxy-nicotinonitrile] yielded an IC50 (PI3K alpha) of 711 nM and an IC50 (PI3K delta) of 58 nM.
In the case of `CCC(=O)N1CC[C@H](Oc2ccc3c(c2)N(c2ccc(OC)c(S(=O)(=O)N(C)C)c2)CCO3)C1` [Example A15, 2-Methoxy-N,N-dimethyl-5-[6-((S)-1-propionyl-pyrrolidin-3-yloxy)-2,3-dihydro-benzo[1,4]oxazin-4-yl]-benzenesulfonamide], the IC50 (PI3K alpha) is reported as 4890 nM and the IC50 (PI3K delta) is reported as 184 nM.
Work on `COc1cc(N2CCOc3ccc(O[C@H]4CCN(C(=O)C5CCOC5)C4)cc32)cnc1OC` (stereo partly drawn) [Example B40, {(S)-3-[4-(5,6-Dimethoxy-pyridin-3-yl)-3,4-dihydro-2H-benzo[1,4]oxazin-6-yloxy]-pyrrolidin-1-yl}-(tetrahydro-furan-3-yl)-methanone] yielded an IC50 (PI3K alpha) of 249 nM and an IC50 (PI3K delta) of 12 nM.
Molecule `Cc1cc(N2CCOc3cnc(O[C@H]4CCN(C(=O)c5cn(C)cn5)C4)cc32)cnc1OC(F)F` [Example E10, {(S)-3-[1-(6-Difluoromethoxy-5-methyl-pyridin-3-yl)-2,3-dihydro-1H-pyrido[3,4-b][1,4]oxazin-7-yloxy]-pyrrolidin-1-yl}-(1-methyl-1H-imidazol-4-yl)-methanone] has an IC50 (PI3K alpha) of 229 nM and an IC50 (PI3K delta) of 13 nM.
Molecule `COc1ncc(N2CCOc3ccc(O[C@H]4CCN(C(=O)C5CNC(=O)C5)C4)cc32)cc1C#N` (stereo partly drawn) [Example C19, 2-Methoxy-5-{6-[(S)-1-(5-oxo-pyrrolidine-3-carbonyl)-pyrrolidin-3-yloxy]-2,3-dihydro-benzo[1,4]oxazin-4-yl}-nicotinonitrile] has an IC50 (PI3K alpha) of 488 nM and an IC50 (PI3K delta) of 21 nM.
With `COc1ncc(N2CCOc3ccc(O[C@H]4CCN(C(=O)c5ccc(=O)n(C)c5)C4)cc32)cc1C#N` [Example D17, 2-Methoxy-5-{6-[(S)-1-(1-methyl-6-oxo-1,6-dihydro-pyridine-3-carbonyl)-pyrrolidin-3-yloxy]-2,3-dihydro-benzo[1,4]oxazin-4-yl}-nicotinonitrile] the IC50 (PI3K alpha) was 705 nM and the IC50 (PI3K delta) was 12 nM.
`Cc1cc(N2CCOc3ccc(O[C@H]4CCN(C(=O)c5ccncc5)C4)cc32)cnc1S(C)(=O)=O` [Example B22, {(S)-3-[4-(6-Methanesulfonyl-5-methyl-pyridin-3-yl)-3,4-dihydro-2H-benzo[1,4]oxazin-6-yloxy]-pyrrolidin-1-yl}-pyridin-4-yl-methanone] showed an IC50 (PI3K alpha) of 589 nM and an IC50 (PI3K delta) of 5 nM.
With `COc1ncc(N2CCOc3ccc(O[C@H]4CCN(C(=O)C5CCOCC5)C4)cc32)cc1F` [Example B18] the IC50 (PI3K alpha) was 723 nM and the IC50 (PI3K delta) was 12 nM.
Molecule `COc1ncc(N2CCOc3cnc(O[C@H]4CCN(C(=O)C5CCOCC5)C4)cc32)cc1C(F)F` [Example F8, {(S)-3-[1-(5-Difluoromethyl-6-methoxy-pyridin-3-yl)-2,3-dihydro-1H-pyrido[3,4-b][1,4]oxazin-7-yloxy]-pyrrolidin-1-yl}-(tetrahydro-pyran-4-yl)-methanone] has an IC50 (PI3K alpha) of 38 nM and an IC50 (PI3K delta) of 5 nM.
`COCC(=O)N1CC[C@H](Oc2ccc3c(c2)N(c2cnc(OC)c(C#N)c2)CCO3)C1` [Example D12, 2-Methoxy-5-{6-[(S)-1-(2-methoxy-acetyl)-pyrrolidin-3-yloxy]-2,3-dihydro-benzo[1,4]oxazin-4-yl}-nicotinonitrile] gave an IC50 (PI3K alpha) of 142 nM and an IC50 (PI3K delta) of under 3 nM.
